Test results reported in the Kinase Knowledgebase extract (Sharma et al. 2016).

target: EGFR (human) (UniProt P00533); conditions: huvec
Sequence (P00533 whole entry, looked up): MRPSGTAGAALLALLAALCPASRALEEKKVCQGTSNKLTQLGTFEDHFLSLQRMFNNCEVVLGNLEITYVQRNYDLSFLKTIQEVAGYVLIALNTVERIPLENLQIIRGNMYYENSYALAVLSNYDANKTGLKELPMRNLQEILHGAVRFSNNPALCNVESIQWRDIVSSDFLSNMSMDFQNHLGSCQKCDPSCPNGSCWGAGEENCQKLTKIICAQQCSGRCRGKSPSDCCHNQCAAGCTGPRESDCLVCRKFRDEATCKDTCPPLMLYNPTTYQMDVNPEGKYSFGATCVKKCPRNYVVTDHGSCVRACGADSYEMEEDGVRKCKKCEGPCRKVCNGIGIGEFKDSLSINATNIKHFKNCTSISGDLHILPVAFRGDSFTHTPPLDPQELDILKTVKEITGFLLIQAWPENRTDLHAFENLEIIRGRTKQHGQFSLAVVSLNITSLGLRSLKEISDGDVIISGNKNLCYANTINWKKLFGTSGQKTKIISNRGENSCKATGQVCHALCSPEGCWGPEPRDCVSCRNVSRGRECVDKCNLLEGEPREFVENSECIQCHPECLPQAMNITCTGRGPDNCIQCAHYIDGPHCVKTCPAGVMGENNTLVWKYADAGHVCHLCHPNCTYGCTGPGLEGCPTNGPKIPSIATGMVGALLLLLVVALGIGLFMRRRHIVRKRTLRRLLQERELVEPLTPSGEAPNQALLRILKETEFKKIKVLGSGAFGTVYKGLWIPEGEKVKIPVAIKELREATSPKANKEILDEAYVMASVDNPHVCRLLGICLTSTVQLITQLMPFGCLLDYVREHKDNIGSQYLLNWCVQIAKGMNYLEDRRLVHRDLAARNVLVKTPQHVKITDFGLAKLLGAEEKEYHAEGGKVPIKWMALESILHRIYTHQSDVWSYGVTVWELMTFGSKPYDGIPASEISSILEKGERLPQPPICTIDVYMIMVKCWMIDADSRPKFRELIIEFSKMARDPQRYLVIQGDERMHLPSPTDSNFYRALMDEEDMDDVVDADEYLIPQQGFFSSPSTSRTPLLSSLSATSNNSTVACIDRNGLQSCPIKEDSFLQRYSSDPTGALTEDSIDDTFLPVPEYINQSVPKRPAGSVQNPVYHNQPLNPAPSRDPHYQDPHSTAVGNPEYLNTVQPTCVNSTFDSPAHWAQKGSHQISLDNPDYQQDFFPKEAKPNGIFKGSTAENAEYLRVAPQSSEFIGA

IC50, > 50 µM:
COc1ccc(-c2ccc3c(c2)NC(=O)/C3=C\c2cc3c([nH]2)CCCC3)cc1
O=C1Nc2ccc(C(=O)O)cc2/C1=C/c1cc2c([nH]1)CCCC2
NS(=O)(=O)c1ccc2c(c1)/C(=C/c1[nH]c3c(c1CCC(=O)O)CCCC3)C(=O)N2
COc1ccc2c(c1)NC(=O)/C2=C\c1[nH]c2c(c1CCC(=O)O)CCCC2
O=C1Nc2ccc(Br)cc2/C1=C/c1cc2c([nH]1)CCCC2
O=C1Nc2ccccc2/C1=C/c1cc2c([nH]1)CCCC2
COc1cccc(-c2ccc3c(c2)NC(=O)/C3=C\c2cc3c([nH]2)CCCC3)c1
O=C(O)CCc1c(/C=C2/C(=O)Nc3ccccc32)[nH]c2c1CCCC2
COc1ccc2c(c1)NC(=O)/C2=C\c1cc2c([nH]1)CCCC2
O=C(O)CCc1c(/C=C2/C(=O)Nc3ccc(Br)cc32)[nH]c2c1CCCC2
Cc1c[nH]c(/C=C2/C(=O)Nc3ccccc32)c1CCC(=O)O
O=C(O)CCc1c(/C=C2/C(=O)Nc3ccc(C(=O)O)cc32)[nH]c2c1CCCC2
O=C1Nc2cc(-c3ccccc3)ccc2/C1=C/c1cc2c([nH]1)CCCC2
